Where a SMILES comes first, the peptide text is derived from it. Bridges are numbered along the chain shown (N, C = ends). [ ]: non-standard residue; d: D form. The star is where a group is joined. hPhe(3-Cl-4-CF3) = N[C@@H](CCc1ccc(C(F)(F)F)c(Cl)c1)C(=O)O; NEtPhe(4-Me) = CCN[C@@H](Cc1ccc(C)cc1)C(=O)O; NMeAbu(4,4,4-F3) = CN[C@@H](CC(F)(F)F)C(=O)O; NMePhe(4-Me) = CN[C@@H](Cc1ccc(C)cc1)C(=O)O; NMeGly(cPent) = CN[C@H](C(=O)O)C1CCCC1; NMeF = CN[C@@H](Cc1ccccc1)C(=O)O; NMeD = CN[C@@H](CC(=O)O)C(=O)O; NMeL = CN[C@@H](CC(C)C)C(=O)O; NMeS = CN[C@@H](CO)C(=O)O; Morpholide = C1CN(*)CCO1; NMeA = CN[C@@H](C)C(=O)O; Ac5c = NC1(C(=O)O)CCCC1; NEtG = CCNCC(=O)O; Sar = CNCC(=O)O
Assays:
[1] = tested on: human lung cancer strain NCI-H441; assay type: cell-based
Summary of the method: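 Readout: […] after the ATP-based reagent. Compound: serial dilutions in dimethyl sulfoxide.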

HRAS wild-type protein = HRAS wild-type protein (Homo sapiens, UniProt P01112); assay: Binding to HRAS by surface plasmon resonance (SPR), KD and KD ratio to KRAS; details: ratio of KD for HRAS wild-type protein to KD for KRAS
Method: (§1) Surface plasmon resonance was used to analyze the binding affinity of compounds for KRAS, NRAS, and HRAS. The apparatus used was Biacore 8K, 8K+, or T200 (GE Healthcare), and the running buffer used was HBS (10 mM HEPES-NaOH, 150 mM NaCl, pH 7.4) containing 1 mM DTT, 10 mM MgCl2, 0.01% Tween 20, 10 µM GDP, and 4% DMSO.
(§2) Biotinylated Avi-tag fusion KRAS, NRAS, and HRAS proteins were expressed in E. coli BL21 (DE3) strains, and after cells were homogenized, they were purified using Streptavidin Mutein Matrix and Superdex 75. After purification, GDP-loaded KRAS, NRAS, and HRAS proteins were immobilized on the surface of Sensor Chip CAP (Cytiva) coated with Biotin CAPture Reagent in an immobilization amount of about 100 to 300 RU. Binding of each compound was evaluated by the Single Cycle Kinetics method, and a running buffer or a compound solution was added to the RAS protein non-immobilized surface and the immobilized surface to obtain a binding response. The flow rate was set to 100 µL/min, and in the compound-adding cycle, compound solutions having different concentrations were intermittently added for 75 seconds each, starting from a low concentration. […] In the blank cycle, a running buffer was intermittently added and not the compound solution. The Biotin CAPture Reagent and RAS proteins were immobilized for each cycle, and at the end of each cycle, the sensor chip was regenerated by the regeneration solution appended to the Biotin CAPture Kit (Cytiva). Measurement was carried out at 30°C.
(§3) The resulting sensorgram was subjected to curve fitting based on a 1:1 binding model on Biacore Insight Evaluation Software or T200 Evaluation Software, and thereby the dissociation constant KD of each compound with respect to KRAS, NRAS, and HRAS was determined. […] Blank indicates a compound from which the KD value with respect to NRAS or HRAS was not obtained.

[2] = molecular target: GDP-bound NRAS wild-type protein (Homo sapiens, UniProt P01111); assay: Binding to NRAS by surface plasmon resonance (SPR), KD and KD ratio to KRAS; details: ratio of KD for GDP-bound NRAS wild-type protein to KD for KRAS
Method: as §1, §2, §3

Chain of HRAS wild-type protein (P01112 whole entry): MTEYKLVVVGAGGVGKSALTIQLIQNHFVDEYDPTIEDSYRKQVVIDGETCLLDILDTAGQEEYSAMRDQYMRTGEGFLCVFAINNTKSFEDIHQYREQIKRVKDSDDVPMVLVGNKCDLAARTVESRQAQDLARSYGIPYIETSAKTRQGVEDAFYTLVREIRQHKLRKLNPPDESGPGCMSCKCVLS
Chain of GDP-bound NRAS wild-type protein (P01111 whole entry): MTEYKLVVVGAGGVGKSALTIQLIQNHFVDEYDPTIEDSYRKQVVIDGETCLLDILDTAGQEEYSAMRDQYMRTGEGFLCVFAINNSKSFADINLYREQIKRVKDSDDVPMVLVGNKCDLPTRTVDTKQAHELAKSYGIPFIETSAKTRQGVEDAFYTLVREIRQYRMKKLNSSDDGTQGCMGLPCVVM

Compound	IC50 [1] [nM]	HRAS /KRAS (HRAS wild-type protein)	NRAS /KRAS [2]
CC[C@H](C)[C@@H]1NC(=O)[C@H](CC(C)C)N(C)C(=O)C[C@@H](C(=O)N2CCOCC2)N(C)C(=O)[C@H](C2CCCC2)N(C)C(=O)C2(CCCC2)NC(=O)[C@@H]2CCCN2C(=O)[C@H](CCc2ccc(C(F)(F)F)c(Cl)c2)NC(=O)CN(CC)C(=O)[C@H](Cc2ccc(C)cc2)N(C)C(=O)CN(C)C(=O)CN(C)C1=O [PP0025] ([NMeL]I[Sar][Sar][NMePhe(4-Me)][NEtG][hPhe(3-Cl-4-CF3)]P[Ac5c][NMeGly(cPent)][NMeD]-Morpholide; lactam N-11)	27.5	C (A compound having a KD ratio of 0.1 or more and less than 3 is denoted as C)	C (A compound having a KD ratio of 0.1 or more and less than 3 is denoted as C)
CC[C@H](C)[C@@H]1NC(=O)[C@H](CC(C)C)N(C)C(=O)C[C@@H](C(=O)N2CCOCC2)N(C)C(=O)[C@H](C2CCCC2)N(C)C(=O)C2(CCCC2)NC(=O)[C@@H]2CCCN2C(=O)[C@H](CCc2ccc(C(F)(F)F)c(Cl)c2)NC(=O)CN(C)C(=O)[C@H](Cc2ccc(C)cc2)N(CC)C(=O)CN(CC)C(=O)CN(C)C1=O [PP0027] ([NMeL]I[Sar][NEtG][NEtPhe(4-Me)][Sar][hPhe(3-Cl-4-CF3)]P[Ac5c][NMeGly(cPent)][NMeD]-Morpholide; lactam N-11)	17.1	C (A compound having a KD ratio of 0.1 or more and less than 3 is denoted as C)	C (A compound having a KD ratio of 0.1 or more and less than 3 is denoted as C)
CC[C@H](C)[C@@H]1NC(=O)[C@H](CC(C)C)N(C)C(=O)C[C@@H](C(=O)N2CCOCC2)N(C)C(=O)[C@H](C2CCCC2)N(C)C(=O)C2(CCCC2)NC(=O)[C@@H]2CCCN2C(=O)[C@H](CCc2ccc(C(F)(F)F)c(Cl)c2)NC(=O)CN(CC)C(=O)[C@H](Cc2ccc(C)cc2)N(CC)C(=O)CN(C)C(=O)CN(C)C1=O [PP0028] ([NMeL]I[Sar][Sar][NEtPhe(4-Me)][NEtG][hPhe(3-Cl-4-CF3)]P[Ac5c][NMeGly(cPent)][NMeD]-Morpholide; lactam N-11)	54.5	C (A compound having a KD ratio of 0.1 or more and less than 3 is denoted as C)	C (A compound having a KD ratio of 0.1 or more and less than 3 is denoted as C)
CC[C@H](C)[C@@H]1NC(=O)[C@H](CC(C)C)N(C)C(=O)C[C@@H](C(=O)N2CCOCC2)N(C)C(=O)[C@H](C2CCCC2)N(C)C(=O)C2(CCCC2)NC(=O)[C@@H]2CCCN2C(=O)[C@H](CCc2ccc(C(F)(F)F)c(Cl)c2)NC(=O)CN(CC)C(=O)[C@H](Cc2ccc(C)cc2)N(C)C(=O)CN(CC)C(=O)CN(C)C1=O [PP0029] ([NMeL]I[Sar][NEtG][NMePhe(4-Me)][NEtG][hPhe(3-Cl-4-CF3)]P[Ac5c][NMeGly(cPent)][NMeD]-Morpholide; lactam N-11)	26.4	C (A compound having a KD ratio of 0.1 or more and less than 3 is denoted as C)	C (A compound having a KD ratio of 0.1 or more and less than 3 is denoted as C)
CC[C@H](C)[C@@H]1NC(=O)[C@H](CC(C)C)N(C)C(=O)C[C@@H](C(=O)N2CCOCC2)N(C)C(=O)[C@H](C2CCCC2)N(C)C(=O)C2(CCCC2)NC(=O)[C@@H]2CCCN2C(=O)[C@H](CCc2ccc(C(F)(F)F)c(Cl)c2)NC(=O)CN(CC)C(=O)[C@H](Cc2ccc(C)cc2)N(CC)C(=O)CN(CC)C(=O)CN(C)C1=O [PP0030] ([NMeL]I[Sar][NEtG][NEtPhe(4-Me)][NEtG][hPhe(3-Cl-4-CF3)]P[Ac5c][NMeGly(cPent)][NMeD]-Morpholide; lactam N-11)	86.7	C (A compound having a KD ratio of 0.1 or more and less than 3 is denoted as C)	C (A compound having a KD ratio of 0.1 or more and less than 3 is denoted as C)
CC[C@H](C)[C@@H]1NC(=O)[C@H](C)N(C)C(=O)C[C@@H](C(=O)N2CCOCC2)N(C)C(=O)[C@H](C2CCCC2)N(C)C(=O)C2(CCCC2)NC(=O)[C@@H]2CCCN2C(=O)[C@H](CCc2ccc(C(F)(F)F)c(Cl)c2)NC(=O)CN(C)C(=O)[C@H](Cc2ccc(C)cc2)N(CC)C(=O)CN(C)C(=O)CN(C)C1=O [PP0031] ([NMeA]I[Sar][Sar][NEtPhe(4-Me)][Sar][hPhe(3-Cl-4-CF3)]P[Ac5c][NMeGly(cPent)][NMeD]-Morpholide; lactam N-11)	11.4	C (A compound having a KD ratio of 0.1 or more and less than 3 is denoted as C)	B (a compound having 3 or more and less than 10 is denoted as B)
CC[C@H](C)[C@@H]1NC(=O)[C@H](CC(F)(F)F)N(C)C(=O)C[C@@H](C(=O)N2CCOCC2)N(C)C(=O)[C@H](C2CCCC2)N(C)C(=O)C2(CCCC2)NC(=O)[C@@H]2CCCN2C(=O)[C@H](CCc2ccc(C(F)(F)F)c(Cl)c2)NC(=O)CN(C)C(=O)[C@H](Cc2ccc(C)cc2)N(CC)C(=O)CN(C)C(=O)CN(C)C1=O [PP0032] ([NMeAbu(4,4,4-F3)]I[Sar][Sar][NEtPhe(4-Me)][Sar][hPhe(3-Cl-4-CF3)]P[Ac5c][NMeGly(cPent)][NMeD]-Morpholide; lactam N-11)	26.9	C (A compound having a KD ratio of 0.1 or more and less than 3 is denoted as C)	C (A compound having a KD ratio of 0.1 or more and less than 3 is denoted as C)
CC[C@H](C)[C@@H]1NC(=O)[C@H](CC(C)C)N(C)C(=O)C[C@@H](C(=O)N2CCOCC2)N(C)C(=O)[C@H](C2CCCC2)N(C)C(=O)C2(CCCC2)NC(=O)[C@@H]2CCCN2C(=O)[C@H](CCc2ccc(C(F)(F)F)c(Cl)c2)NC(=O)CN(C)C(=O)[C@H](Cc2ccc(C)cc2)N(C)C(=O)[C@H](CO)N(C)C(=O)CN(C)C1=O [PP0037] ([NMeL]I[Sar][NMeS][NMePhe(4-Me)][Sar][hPhe(3-Cl-4-CF3)]P[Ac5c][NMeGly(cPent)][NMeD]-Morpholide; lactam N-11)	430	C (A compound having a KD ratio of 0.1 or more and less than 3 is denoted as C)	C (A compound having a KD ratio of 0.1 or more and less than 3 is denoted as C)
CC[C@H](C)[C@@H]1NC(=O)[C@H](CC(C)C)N(C)C(=O)C[C@@H](C(=O)N2CCOCC2)N(C)C(=O)[C@H](C2CCCC2)N(C)C(=O)C2(CCCC2)NC(=O)[C@@H]2CCCN2C(=O)[C@H](CCc2ccc(C(F)(F)F)c(Cl)c2)NC(=O)CN(C)C(=O)[C@H](Cc2ccccc2)N(C)C(=O)CN(C)C(=O)CN(C)C1=O [PP0039] ([NMeL]I[Sar][Sar][NMeF][Sar][hPhe(3-Cl-4-CF3)]P[Ac5c][NMeGly(cPent)][NMeD]-Morpholide; lactam N-11)	20.1	C (A compound having a KD ratio of 0.1 or more and less than 3 is denoted as C)	C (A compound having a KD ratio of 0.1 or more and less than 3 is denoted as C)
